In data set [1] the test system is mice. Kind of data set: Acute in vivo toxicity after IV injection. The conditions noted are these: for side effects of surviving mice (scale): one symbol per mouse; for histology of major organs: mice who died from polymers at higher dosages; for in vivo toxicity (in words): administered intravenously. From the text: One of the major limitations of cationic peptides is their potenitial toxicity when administered systemically. As a result, we tested the acute toxicity of these polymers after injecting them IV. […] Conversely, linear polymers that had minimal to moderate antibacterial properties had the greatest in vivo toxicity. […] Even if one arginine adjacent to the histidine residue replaces the amino terminal lysine in the HK polymer (e.g., HK-R), the polymer was still very toxic when administered intravenously. The in vivo toxicity of linear HK polymers from most to least is as follows: HR>HK-R>>HK. […] There were parallels between in vitro and in vivo toxicity studies (Tables 2 and 3). […] The data is consistent with linear polymers interacting and inhibiting ionic channels of the cardiovascular system (similar to neurotoxins). Intravenous injection of linear polymers with arginine or lysines adjacent (or near) to histidines should be avoided.

Data set [2] deals with MDA-MB-435 cells. The data set can be described thus: In vitro toxicity: reduction in cell number after incubation with polymers. It is filed as cell-based. From the text: In vitro toxicity of these polymers was then examined on a malignant cell line (MDA-MB-435).
For data set [3], the system named is gram negative bacteria E. coli transformed with a kanamycin-resistant plasmid. The data set can be described thus: In vitro bacteria inhibition (MIC, turbidity O.D. 600 nm in LB broth). The class given is cell-based. As to the method: Bacteria; A gram negative bacteria E. coli transformed with a kanamycin-resistant plasmid was used in these experiments and grown in LB media (Biofluids, Rockville, Md.).
For in vitro studies, several polymers were tested for their ability to inhibit gram negative bacteria. […] The histidine and lysine ratio and their sequence order have an important role in the-polymers' effects. […] Since it is likely that H^3KN4b has the greatest ability to chelate key transitional elements, chelation of key elements in LB media, separate from the polymer's role of binding to the bacteria membrane, is unlikely to have a major role in the inhibition of bacteria. • 3) The sequence order of lysine and histidine in the branched polymer has a major role in the inhibition of bacteria. Altering these sequences affects the antibacterial activity of […]. Sufficient cationic amino acids are critical for binding whereas the exact function of histidine is unclear. Data supports that cationic amino acids need to be evenly distributed in branches, particularly at N-terminal ends. Too many cationic amino acids in the polymer, however, reduce antibacterial activity. • 4) Histidine may have a role in the interruption of iron transport systems and/or it may enhance the hydrophobic interactions of the polymer with the bacteria membrane.

[4] abbreviates: 50 μg/ml, 6 h incubation in DMEM/10% serum, counted 24 h later vs untreated cells.
[5] abbreviates: 150 μg/ml, 6 h incubation in DMEM/10% serum, counted 24 h later vs untreated cells.
Setting [6] is: 100 μl/ml, 6 h incubation in DMEM/10% serum, counted 24 h later vs untreated cells.

Where two headings read alike, the source gives them in different places. Positions of bridges follow the written chain, without caps; N, C: chain ends. Chains are numbered I, II in the order given. No end group written: not given here.

We go through eight substances from patent US7465708B2, “Branched cationic copolymers and methods for antimicrobial use” (priority 2002, dated 2008).

Turning to “I: KHHHKHHHKHHHKHHHKKKK / II: KHHHKHHHKHHHKHHHK / III: KHHHKHHHKHHHKHHHK / IV: KHHHKHHHKHHHKHHHK (amide I:18-IV:C, I:19-III:C, I:20-II:C) [H^3K4b, [K-H-H-H-K-H-H-H-K-H-H-H-K-H-H-H-K]4K3]”, the “number of mice who survive treatment / number of mice in treatment group” value in data set [1] (75 μg IV), in data set [1] (150 μg IV), in data set [1] (300 μg IV) and in data set [1] (600 μg IV) was 2/2 in each case. In addition, in data set [1] (three 600 μg dosages, each separated by 4 h), the “toxicity after repeated dosing (in words)” value was “no evidence of toxicity”. The “Reduction In Cell Number” value in data set [2] (setting [4]), in data set [2] (setting [5]) and in data set [2] (setting [6]) was 0% throughout. Also, in data set [2] (MDA-MB-435 cells), the “in vitro toxicity (in words, measured by cell number)” value was “no observed toxicity”.
Regarding “KHKHKHKHKGKHKHKHKHK [linear HK, [K-H-K-H-K-H-K-H-K-G-K-H-K-H-K-H-K-H-K]]”, the “number of mice who survive treatment / number of mice in treatment group” value in data set [1] (75 μg IV) is 2/2; in data set [1] (150 μg IV) it was 2/2; in data set [1] (300 μg IV), 2/2; in data set [1] (600 μg IV) it was 0/2. In addition, the “side effects of surviving mice (scale)” value in data set [1] (150 μg IV) is recorded as “++, +”; in data set [1] (300 μg IV), “+++, +++”. Also, the “histology of major organs” value in data set [1] is “no evidence of pathology”. Further, the “Reduction In Cell Number” value in data set [2] is recorded as 68%. For the same substance, the “in vitro toxicity (in words, measured by cell number)” value in data set [2] was “significantly more toxic”.
With “RHKHKHKHKGKHKHKHKHK [HK-R, [R-H-K-H-K-H-K-H-K-G-K-H-K-H-K-H-K-H-K]]”, the “number of mice who survive treatment / number of mice in treatment group” value in data set [1] (75 μg IV) is on record as 2/2; in data set [1] (150 μg IV), 2/2; in data set [1] (300 μg IV), 0/2; in data set [1] (600 μg IV), 0/2. The “side effects of surviving mice (scale)” value in data set [1] (150 μg IV) is “+, +”. In addition, the “in vivo toxicity (in words)” value in data set [1] was “very toxic”. Moreover, in data set [1], the “histology of major organs” value is “no evidence of pathology”.
On to “RHRHRHRHRGRHRHRHRHR [linear RH, [R-H-R-H-R-H-R-H-R-G-R-H-R-H-R-H-R-H-R]]”, for which the “number of mice who survive treatment / number of mice in treatment group” value is 2/2 in data set [1] (75 μg IV), 2/2 in data set [1] (150 μg IV), 0/2 in data set [1] (300 μg IV) and 0/2 in data set [1] (600 μg IV). The “side effects of surviving mice (scale)” value is “+ (moderate reduction in activity in for less than 1 min)” in data set [1] (75 μg IV) and “+++, +” in data set [1] (150 μg IV). Besides, in data set [1], the “in vivo toxicity (in words)” value is recorded as “most toxic of the linear polymers”. In addition, in data set [1], the “histology of major organs” value is “no evidence of pathology”.
“I: KHKHKHKHKGKHKHKHKHKKKK / II: KHKHKHKHKGKHKHKHKHK / III: KHKHKHKHKGKHKHKHKHK / IV: KHKHKHKHKGKHKHKHKHK (amide I:20-IV:C, I:21-III:C, I:22-II:C) [HK4b, [K-H-K-H-K-H-K-H-K-G-K-H-K-H-K-H-K-H-K]4K3]”: the “number of mice who survive treatment / number of mice in treatment group” value in data set [1] (75 μg IV), in data set [1] (150 μg IV), in data set [1] (300 μg IV) and in data set [1] (600 μg IV) was 2/2 each time.
Turning to “I: KHKHHKHHKHHKHHKHHKHKKKK / II: KHKHHKHHKHHKHHKHHKHK / III: KHKHHKHHKHHKHHKHHKHK / IV: KHKHHKHHKHHKHHKHHKHK (amide I:21-IV:C, I:22-III:C, I:23-II:C) [H^2K4b, [KHKHHKHHKHHKHHKHHKHK]4K3]”, the “number of mice who survive treatment / number of mice in treatment group” value in data set [1] (75 μg IV), in data set [1] (150 μg IV), in data set [1] (300 μg IV) and in data set [1] (600 μg IV) was 2/2 each time. The “Reduction In Cell Number” value in data set [2] (setting [4]) amounted to 5%; in data set [2] (setting [5]), 22%; in data set [2] (setting [6]), 12%.
Consider “I: KHHHNHHHKHHHKHHHKKKK / II: KHHHNHHHKHHHKHHHK / III: KHHHNHHHKHHHKHHHK / IV: KHHHNHHHKHHHKHHHK (amide I:18-IV:C, I:19-III:C, I:20-II:C) [H^3KN4b, [K-H-H-H-N-H-H-H-K-H-H-H-K-H-H-H-K]4K3]”, for which, in data set [3], the “antimicrobial activity (in words)” value is “moderate antimicrobial activity”.
The same measure, in the same setting: for “I: KHKHHKHHKHHKHHKHHKHKK / II: KHKHHKHHKHHKHHKHHKHK (amide I:21-II:C) [H^2K2b, [K-H-H-K-H-H-K-H-H-K-H-H-K-H-H-K-H-K]2K]” the value was “only moderate reduction on bacteria growth”.
